Test results as given in patent US10947201B2, “Certain chemical entities, compositions, and methods” (NEUPHARMA, INC., priority 2015, dated 2021).
pIC50: −log10 of the molar value.

Columns and labels:
EGFR (ErbB1) = target: T1, EGFR (ErbB1) (Homo sapiens, UniProt P00533); assay: Z'-LYTE kinase inhibition assay (Invitrogen), EGFR; format: biochemical
T1 construct: purchased Invitrogen
Method in brief: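 Z'-LYTE FRET assay: 1.1-5.25 ng EGFR with 2 μM Tyr 04 peptide in 50 mM HEPES pH 7.5, 10 mM MgCl2, 2 mM MnCl2, 1 mM EGTA, 1 mM DTT, 1% DMSO; 60 min kinase reaction then 60 min development at room temperature. IC50 from 10-point 3-fold titrations, percent inhibition vs concentration.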

A549 cells = assay: MTT cell growth inhibition assay, A549; format: cell-based; settings: Homo sapiens, A549 cells (KRAS mutation), 72 h
Method: (§1) Inhibition of cell growth by compounds was measured using MTT assay (Mosmann, T., Journal of Immunological Methods, 1983, 65, 55-63). Tumor cell lines were purchased from ATCC (American Type Culture Collection, Manassas, Va.). All cell lines were maintained in RPMI 1640 (Hyclone) supplemented with 10% fetal bovine serum (FBS, Hyclone), glutamine (2 mM, Hyclone), and antibiotics (penicillin 100 U/mL and streptomycin 50 μg/mL) at 37° C. in a humidified atmosphere of 5% CO2 in air. Taxol (as a positive control, Sigma) and compounds were dissolved in DMSO (Sigma), and the final concentration of DMSO in the medium was 1%. Tumor cells were plated in 96-well plates at densities of about 4000 cells/well of a 96-well plate and allowed to adhere/grow for 24 h. They were then treated with various concentrations of drug for 72 h. 3-(4,5-Dimethylthiazol-2-yl)-2,5-diphenyltetrazolium bromide (MTT, Sigma) was used to determine the number of viable cells at the time of compound addition and the number of cells remaining after 72 h compound exposure. The number of cells remaining after 72 h was compared to the number of viable cells at the time of compound addition by measuring the absorbance at 570 nm, allowing for the calculation of growth inhibition.
(§2) All concentrations of compounds were tested in triplicate and controls were averaged over 4 wells. IC50 was calculated by plotting the concentration of compound vs the percentage of inhibition in treated wells using GraphPad Prism 5.
(§3) Tables 5 show IC50 values of several compounds of the invention in A549, A431, H1299, and H1975 human cancer cells. A549 cells have a mutation on KRAS, H3255 cells have L858R mutation, and H1975 cells have double EGFR mutations (L858R/T790M). The scale utilized in Table 5 is as follows: +++ less than 100 nM; ++ between 100 nM and 500 nM; and + greater than 500 nM.

H1975 cells = assay: MTT cell growth inhibition assay, H1975; format: cell-based; settings: Homo sapiens, NCI-H1975, H1975 cells (EGFR L858R/T790M), 72 h
Method: as §1, §2, §3

BTK = target: T2, BTK (Homo sapiens, UniProt Q06187); assay: Z'-LYTE kinase inhibition assay (Invitrogen), BTK; format: biochemical; settings: compound at 100 nM; [ATP] = Km
T2 construct: purchased Invitrogen
Method in brief: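 Z′-LYTE FRET read-out with Tyr 01 peptide 2 μM and 1.04-10.4 ng kinase in HEPES pH 7.5, MgCl2, EGTA, BRIJ-35; 1 h room temperature reaction, then 1 h development.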

A431 cells = assay: MTT cell growth inhibition assay, A431; format: cell-based; settings: Homo sapiens, A-431, 72 h
Method: as §1, §2, §3

H3255 cells = assay: MTT cell growth inhibition assay, H3255; format: cell-based; settings: Homo sapiens, NCI-H3255, H3255 cells (L858R mutation), 72 h
Method: as §1, §2, §3

EGFR (ErbB1) T790M L858R = target: T3, EGFR (ErbB1) T790M L858R (Homo sapiens, UniProt P00533, L858R/T790M); assay: Z'-LYTE kinase inhibition assay (Invitrogen), EGFR L858R/T790M; format: biochemical
T3 construct: purchased Invitrogen
Method in brief: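 Z′-LYTE FRET assay with EGFR L858R/T790M (0.38-4.22 ng) and 2 μM Tyr 04 peptide in 50 mM HEPES pH 7.0, 10 mM MgCl2, 1 mM EGTA, 1% DMSO; 1 h kinase reaction at room temperature, then 1 h development. 10-point 3-fold titrations; IC50 from concentration vs % inhibition.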

T1 sequence (P00533 25-1210): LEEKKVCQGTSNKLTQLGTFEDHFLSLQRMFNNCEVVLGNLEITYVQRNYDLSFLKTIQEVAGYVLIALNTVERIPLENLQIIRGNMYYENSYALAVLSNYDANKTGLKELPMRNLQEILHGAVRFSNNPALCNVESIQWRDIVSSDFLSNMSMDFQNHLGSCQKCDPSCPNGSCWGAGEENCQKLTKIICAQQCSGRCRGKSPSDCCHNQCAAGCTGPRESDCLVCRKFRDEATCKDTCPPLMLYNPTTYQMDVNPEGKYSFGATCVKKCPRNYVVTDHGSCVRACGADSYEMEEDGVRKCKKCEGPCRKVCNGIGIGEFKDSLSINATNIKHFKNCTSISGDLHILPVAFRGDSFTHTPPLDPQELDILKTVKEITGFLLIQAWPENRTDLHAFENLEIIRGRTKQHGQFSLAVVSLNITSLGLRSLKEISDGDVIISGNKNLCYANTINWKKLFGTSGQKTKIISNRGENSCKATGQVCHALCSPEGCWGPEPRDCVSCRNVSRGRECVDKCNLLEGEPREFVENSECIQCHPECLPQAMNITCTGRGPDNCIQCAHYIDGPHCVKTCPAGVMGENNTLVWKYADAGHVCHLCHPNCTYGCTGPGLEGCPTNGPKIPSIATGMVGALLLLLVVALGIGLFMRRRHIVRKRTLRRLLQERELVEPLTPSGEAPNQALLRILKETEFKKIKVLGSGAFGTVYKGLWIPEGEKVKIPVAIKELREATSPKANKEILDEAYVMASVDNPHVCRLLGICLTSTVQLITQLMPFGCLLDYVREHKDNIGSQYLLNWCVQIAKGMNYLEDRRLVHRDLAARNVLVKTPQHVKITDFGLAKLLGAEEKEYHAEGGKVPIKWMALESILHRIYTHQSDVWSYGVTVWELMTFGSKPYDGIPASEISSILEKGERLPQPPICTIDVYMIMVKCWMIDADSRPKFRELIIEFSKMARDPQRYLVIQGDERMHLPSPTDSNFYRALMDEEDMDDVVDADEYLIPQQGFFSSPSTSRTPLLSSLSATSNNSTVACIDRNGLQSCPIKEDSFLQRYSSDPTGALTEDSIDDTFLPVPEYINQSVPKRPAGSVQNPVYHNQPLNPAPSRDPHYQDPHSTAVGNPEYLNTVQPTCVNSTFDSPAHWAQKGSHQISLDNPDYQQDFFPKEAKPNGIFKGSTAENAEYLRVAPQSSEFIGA
T3 sequence (P00533 25-1210 T790M/L858R): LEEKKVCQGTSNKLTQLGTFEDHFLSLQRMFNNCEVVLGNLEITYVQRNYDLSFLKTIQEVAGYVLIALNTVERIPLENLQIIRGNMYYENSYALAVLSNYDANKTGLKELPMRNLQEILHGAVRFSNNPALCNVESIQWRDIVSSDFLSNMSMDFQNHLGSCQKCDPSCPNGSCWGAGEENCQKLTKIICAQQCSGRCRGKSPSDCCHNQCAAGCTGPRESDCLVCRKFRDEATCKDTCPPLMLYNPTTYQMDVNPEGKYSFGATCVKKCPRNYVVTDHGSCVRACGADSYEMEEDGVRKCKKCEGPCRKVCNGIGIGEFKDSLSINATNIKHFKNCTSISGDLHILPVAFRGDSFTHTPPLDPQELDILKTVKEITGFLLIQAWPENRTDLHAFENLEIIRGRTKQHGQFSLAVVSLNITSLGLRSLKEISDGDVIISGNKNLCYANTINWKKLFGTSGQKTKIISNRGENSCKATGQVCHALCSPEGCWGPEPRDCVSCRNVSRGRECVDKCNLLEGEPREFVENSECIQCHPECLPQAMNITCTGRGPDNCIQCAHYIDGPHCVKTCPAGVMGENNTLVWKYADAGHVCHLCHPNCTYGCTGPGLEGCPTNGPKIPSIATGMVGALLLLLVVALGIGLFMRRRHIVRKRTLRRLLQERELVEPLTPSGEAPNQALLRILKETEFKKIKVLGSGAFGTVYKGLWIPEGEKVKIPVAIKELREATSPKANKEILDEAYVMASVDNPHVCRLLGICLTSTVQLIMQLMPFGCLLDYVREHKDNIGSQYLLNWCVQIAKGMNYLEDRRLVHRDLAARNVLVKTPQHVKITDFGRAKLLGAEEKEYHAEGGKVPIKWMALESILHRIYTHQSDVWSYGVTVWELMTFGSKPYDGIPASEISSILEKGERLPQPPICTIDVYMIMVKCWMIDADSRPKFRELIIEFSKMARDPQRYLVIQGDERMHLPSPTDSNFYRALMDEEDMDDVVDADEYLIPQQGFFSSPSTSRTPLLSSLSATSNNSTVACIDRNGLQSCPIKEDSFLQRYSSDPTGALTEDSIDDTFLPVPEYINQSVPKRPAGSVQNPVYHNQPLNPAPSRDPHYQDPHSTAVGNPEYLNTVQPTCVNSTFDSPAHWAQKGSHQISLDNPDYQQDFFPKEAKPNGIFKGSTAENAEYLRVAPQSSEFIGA
T2 sequence (Q06187 whole entry): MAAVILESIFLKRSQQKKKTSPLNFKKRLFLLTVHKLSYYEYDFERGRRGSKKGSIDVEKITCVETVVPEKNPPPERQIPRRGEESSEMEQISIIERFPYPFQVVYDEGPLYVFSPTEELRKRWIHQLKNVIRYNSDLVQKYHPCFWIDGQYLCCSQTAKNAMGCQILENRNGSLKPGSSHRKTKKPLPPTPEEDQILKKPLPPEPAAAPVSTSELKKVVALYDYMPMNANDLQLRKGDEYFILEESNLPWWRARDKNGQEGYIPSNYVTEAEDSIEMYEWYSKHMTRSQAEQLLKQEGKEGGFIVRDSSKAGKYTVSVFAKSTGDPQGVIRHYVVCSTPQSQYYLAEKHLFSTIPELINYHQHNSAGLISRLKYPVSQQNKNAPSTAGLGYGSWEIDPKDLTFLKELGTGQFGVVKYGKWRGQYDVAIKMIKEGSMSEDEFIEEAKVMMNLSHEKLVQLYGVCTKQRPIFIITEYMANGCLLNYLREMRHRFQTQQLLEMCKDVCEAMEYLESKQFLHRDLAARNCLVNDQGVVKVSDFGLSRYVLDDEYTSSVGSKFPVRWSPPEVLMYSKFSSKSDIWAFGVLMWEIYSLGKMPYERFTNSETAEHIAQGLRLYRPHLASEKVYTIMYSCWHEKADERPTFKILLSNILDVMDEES

pIC50 (EGFR (ErbB1)): > 7.00
inhibition at 0.1 µM (EGFR (ErbB1); compound at 100 nM, [ATP] = Km): > 50%
pIC50 (A549 cells): > 7.00
pIC50 (H1975 cells): > 7.00
inhibition at 0.1 µM (BTK): > 50%
pIC50 (A431 cells): > 7.00
pIC50 (H3255 cells): > 7.00
pIC50 (EGFR (ErbB1) T790M L858R): > 7.00
inhibition at 0.1 µM (EGFR (ErbB1) T790M L858R; compound at 100 nM, [ATP] = Km): > 50%
SMILES: C=CC(=O)Nc1cc(Nc2ncc3cccc(-c4cccc(F)c4)c3n2)ccc1N(C)CCN(C)C [Example C006, N-(2-((2-(dimethylamino)ethyl)(methyl)amino)-5-((8-(3-fluorophenyl)quinazolin-2-yl)amino)phenyl)acrylamide]
